Measurements published in publication PMC8329197, “Compounds targeting OSBPL7 increase ABCA1-dependent cholesterol efflux preserving kidney function in two models of kidney disease” (Nature Communications, 2021).
Values joined by “and” are separate entries in the source; they are usually repeats but may differ in a detail not shown here. Equal values may be shown once.

What was measured:
OSBPL7 = tested on: T1, OSBPL7; assay: Competition with ^3H-Cpd K UV cross-linking to FLAG-tagged OSBPL7 in HEK293 cells (immunoprecipitation, autoradiography); type: binding, human; set-up: OSBP7 percentage of inhibition / OSBP7 percentage of inhibition, average: concentration or dose not given beside the values; OSBPL7 Competition %: dose or concentration left out as unconfirmed
T1 construct: Plasmids expressing each as a full-length protein with a C-terminal FLAG tag were obtained; expressed in transfected cells; host or cells: HEK293
Method: Briefly, a plasmid expressing a candidate target of interest fused with a FLAG tag was transfected into HEK293 cells. After 24 h, tritiated compound K at a concentration capable of inducing ABCA1-mediated cholesterol efflux (1.0 μM) was added for 3 h, then the live cells were exposed to UV-light (ʎ = 336 nm) to query potential compound/target cross-linking in situ. Cell lysates were prepared, the expressed protein was then selectively immunoprecipitated using an anti-FLAG antibody coupled to sepharose beads, bound proteins were separated by SDS-PAGE, and two identical blots were prepared and probed by western blot and by autoradiography to detect protein expression and presence or absence of compound crosslinking, respectively. The flow chart of this screen is illustrated in Fig. 2. Figure 2d illustrates the ability of Cpd A and Cpd G to displace tritiated Cpd K from overexpressed and immunoprecipitated OSBPL7. Figure 3b illustrates the use of this assay to detect binding of tritiated Cpd K to overexpressed and immunoprecipitated variants of OSBPL7 containing point mutations in the predicted oxysterol binging pocket of OSBPL7. The advantages of this method are: i. the use of plasmid transfection leads to high expression of each candidate which reduces the likelihood to miss an authentic target for those which may be expressed at low endogenous levels, ii. the interaction of the chemical probe with its target occurs in a relevant biological context (live cells) at a pharmacologically active concentration, and iii. immunoprecipitation allows the expressed protein of interest to be purified from background proteins, substantially improving the signal/noise ratio.

ABCA1 protein = assay: ABCA1 western blot in podocyte whole-cell lysates; type: cell-based, human; conditions: Cpd G 10 µM, Cpd A 5 µM; podocytes
Method: Cell lines were purchased from ATCC and subcultured for no more than passage 15, except for human podocytes, which were originally from Dr Jochen Reiser. Conditionally immortalized human podocytes were cultured under permissive conditions at 33 °C, in RPMI medium (Corning) containing 10% FBS (GIBCO), 1% penicillin/streptomycin, 0.01 mg/ml recombinant human insulin, 0.0055 mg/ml human transferrin (substantially iron-free), and 0.005 μg/ml sodium selenite (ITS, Corning). To induce differentiation, podocytes were cultured at 37 °C for 14 days in RPMI medium containing 10% FBS (GIBCO) and 1% penicillin/streptomycin. Differentiated podocytes were starved in RPMI-0.2% FBS for 18 h and then treated with 1 μM, 5 μM, and 10 μM of compounds freshly prepared in DMSO for 18 h at 37 °C as indicated.
Lysates, or cell fractions were incubated in Laemmli buffer at 55 °C for 10 min under reducing conditions. A total of 30 μg of protein from cell lysates or one-third of the volume collected in cell fraction preparations was separated by SDS-PAGE in 4–20% gradient gels (Biorad) and proteins were then transferred to PVDF membranes. […] Signals were detected after incubation with Westernbright ECL HRP substrate (Advansta) and luminescence signals were captured with Azure C600 Gel Imaging workstation (Azure Biosystems Inc, USA) or X-ray films.

Col4a3 KO mice [1] = assay: Alport syndrome model: survival study, treatment from 6 weeks of age
[2] = Microsomal metabolism, human; type: in vitro ADME
Free fraction, rat = type: in vitro ADME; conditions: read-out: free fraction rat / man [%]
Covalent Binding = type: in vitro ADME
Free fraction, man = type: in vitro ADME; conditions: rat
PgP = PgP inhibition; type: in vitro ADME
CYPs (HLM.) = assay: CYP inhibition in HLM; type: in vitro ADME, human
[3] = tested on: THP1 macrophages transfected with siRNA; assay: apoAI-mediated cholesterol efflux in siRNA-transfected THP1 macrophages; type: cell-based, human; set-up: unit not given here; conditions: Cpd G 5 µM; for APOA1-MEDIATED CHOLESTEROL EFFLUX: single experiments
Method: siRNA pools specific for human OSBPL7, human CB1R and non target siRNA negative control are summarized in Supplementary Table 6. THP1 monocytes were seeded at a density of 80,000 cells/well in 96-well plates and differentiated with PMA as described above. After 72 h, medium was replaced by 50 µl of fresh medium per well. Cells were then transfected using Viromer Blue reagent (Origene) following the manufacturer’s directions. Briefly, 10 µl of siRNA (5 µM) was mixed with 90 µl of Viromer Blue (diluted 1% v/v in supplied buffer). After 15 min incubation, siRNA-transfection reagent complexes were diluted 1:6.5 in fresh medium and added in a volume of 50 µl per well. After 24 h, cells were then loaded with cholesterol by incubation with acetylated LDL (25 µg/ml) in RPMI medium, 1% FBS, 100 nM PMA, 2 µCi ^3H-cholesterol for 24 h. A set of wells containing transfected cells was set aside to verify transfection efficiency by RT-PCR. The cholesterol-loaded macrophages were then incubated in the presence of Cpd G 5 μM, or vehicle (0.1% DMSO) in RPMI medium w/o Phenol Red, 0.2% BSA) for an additional 24 h. Cholesterol efflux was then measured as described above.

Col4a3 KO mice [4] = assay: Alport syndrome model: serum cholesterol and triglycerides; type: in vivo, mouse
Hepatocytes Clint, rat = type: in vitro ADME
[5] = Rat single-dose pharmacokinetics; conditions: in vivo

For `O=C(N[C@@H]1CCCC[C@H]1O)c1ccc(OCC(F)(F)F)c(-c2ccc(Cl)c(Cl)c2)n1` [Cpd A], the “OSBP7 percentage of inhibition, average” value (OSBPL7; average of 3) was 65%, the “OSBPL7 Competition %” value (OSBPL7; average(SEM)) was 65(8.1) % and the “OSBP7 percentage of inhibition” value (OSBPL7; single experiments (3 per compound)) was 50% and 78% and 67%. For the same compound, the “Competition for ^3H-Cpd K binding to OSBPL7” value (OSBPL7; unlabeled Cpd K at 50-fold excess, Cpd A, Cpd G 10 and 50 µM) was “effective competitors” and the “ABCA1 protein levels in whole-cell lysates” value (ABCA1 protein) was “significantly increased ABCA1 protein levels”.

In the case of `O=C(N[C@@H]1CCCC[C@H]1O)c1cnc(OCC(F)(F)F)c(-c2ccc(Cl)c(Cl)c2)c1` [Cpd G], the “SURVIVAL CURVE: day with status 1= dead” value (Col4a3 KO mice [1]; Col4A3 KO, Cpd G 100 mg/Kg/day started at week 6, single animals) is reported as 67 days and 70 days and 73 days and 78 days, the “Increased life span compared to controls” value (Col4a3 KO mice [1]; Col4a3 KO, treatment initiated at 6 weeks of age) is reported as “approximately 15%” and the “Microsomes (MAB%) (r/h)” value [2] is reported as 82%. For the same compound, the fraction unbound (Free fraction, rat) was less than 0.01, the “Covalent Binding” value (Covalent Binding) was “No flag” and the fraction unbound (Free fraction, man) was less than 0.01. The PgP inhibition (PgP) was “Negative”, the “CYPs (HLM.)” value (CYPs (HLM.)) was greater than 25 µM and the “APOA1-MEDIATED CHOLESTEROL EFFLUX, mean” value ([3]; siCB1R cells) was 4.467. The “APOA1-MEDIATED CHOLESTEROL EFFLUX” value ([3]; siCB1R cells) was 5.6 and 4.3 and 3.5, the “APOA1-MEDIATED CHOLESTEROL EFFLUX, mean” value ([3]; siCTRL cells) was 4.267 and the “APOA1-MEDIATED CHOLESTEROL EFFLUX” value ([3]; siCTRL cells) was 5 and 4.8 and 3. For the same compound, the “SERUM TRIGLYCERIDES” value (Col4a3 KO mice [4]; 8 week-old Col4a3 KO, Cpd G 4 weeks, single animals) was 78 mg/dL and 59 mg/dL and 83 mg/dL and 72 mg/dL, the “SERUM CHOLESTEROL” value (Col4a3 KO mice [4]; Col4a3 KO, Cpd G 100 mg/kg) was “no effect on serum cholesterol” and the “SERUM TRIGLYCERIDES” value (Col4a3 KO mice [4]; Col4a3 KO, Cpd G 100 mg/kg) was “tended to reduce serum triglycerides”. For the same compound, the “SERUM CHOLESTEROL” value (Col4a3 KO mice [4]; Col4a3 KO, Cpd G 28 days, single animals) was 94 mg/dL and 139 mg/dL and 205 mg/dL and 126 mg/dL, the “Hepatocytes Clint (Fh%) (r/h)” value (Hepatocytes Clint, rat) was 70% and the bioavailability [5] was 105%. For the same compound, the clearance [5] was 2.5 mL/min/kg, the half-life [5] was 8.9 h and the Vd ([5]; read-out: Vss) was 1.5 L/kg.
